Assay results taken from ChEMBL document CHEMBL5143725, “Optimization of TEAD P-Site Binding Fragment Hit into In Vivo Active Lead MSC-4106” (J Med Chem, 2022).
One block for each compound: values may come before it.

Experiments:
[1] = molecular target: T1, Transcriptional enhancer factor TEF-3 (Homo sapiens, UniProt Q15561); assay: Inhibition of pSF-CMV-P-FLAG tagged human TEAD4 palmitoylation transfected in HEK293 cells at 10 uM incubated for 6 hrs by Western blot analysis relative to control; type: cell-based
T1 sequence (Q15561 whole entry, the tested form may be a part): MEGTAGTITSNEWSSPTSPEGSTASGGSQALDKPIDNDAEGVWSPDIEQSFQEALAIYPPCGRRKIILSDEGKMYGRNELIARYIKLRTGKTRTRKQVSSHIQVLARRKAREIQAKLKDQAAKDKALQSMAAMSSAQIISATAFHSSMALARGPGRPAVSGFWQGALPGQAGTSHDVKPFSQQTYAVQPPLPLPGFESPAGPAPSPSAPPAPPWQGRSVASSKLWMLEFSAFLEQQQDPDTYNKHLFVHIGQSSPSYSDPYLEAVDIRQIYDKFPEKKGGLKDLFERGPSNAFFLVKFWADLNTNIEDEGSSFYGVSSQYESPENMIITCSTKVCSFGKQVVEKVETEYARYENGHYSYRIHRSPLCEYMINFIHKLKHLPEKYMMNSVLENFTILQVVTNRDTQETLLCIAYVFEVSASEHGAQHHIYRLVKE

[2] = molecular target: T2, Transcriptional enhancer factor TEF-1 (Homo sapiens, UniProt P28347); assay: Binding affinity to human TEAD1 (209 to 426 residues) expressed in Escherichia coli BL21 Star (DE3) assessed as change in melting temperature incubated for 2 hrs by measuring tryptophane fluorescence by Nano Differential scanning fluorometry
T2 sequence (P28347 whole entry, the tested form may be a part): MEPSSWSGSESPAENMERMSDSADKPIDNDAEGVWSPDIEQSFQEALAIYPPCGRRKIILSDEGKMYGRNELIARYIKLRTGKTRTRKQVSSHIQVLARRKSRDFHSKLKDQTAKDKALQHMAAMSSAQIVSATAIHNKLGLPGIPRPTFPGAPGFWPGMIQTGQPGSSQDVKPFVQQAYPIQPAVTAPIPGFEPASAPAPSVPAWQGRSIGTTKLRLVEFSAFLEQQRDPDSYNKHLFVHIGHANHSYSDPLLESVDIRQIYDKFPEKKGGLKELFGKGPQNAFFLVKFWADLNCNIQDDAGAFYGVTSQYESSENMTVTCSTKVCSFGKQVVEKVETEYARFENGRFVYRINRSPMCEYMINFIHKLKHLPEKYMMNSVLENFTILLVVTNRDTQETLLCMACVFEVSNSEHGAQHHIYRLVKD

[3] = molecular target: T3, Transcriptional enhancer factor TEF-4 (Homo sapiens, UniProt Q15562); assay: Inhibition of pSF-CMV-P-FLAG tagged human TEAD2 palmitoylation transfected in HEK293 cells at 10 uM incubated for 6 hrs by Western blot analysis relative to control; type: cell-based
T3 sequence (Q15562 whole entry, the tested form may be a part): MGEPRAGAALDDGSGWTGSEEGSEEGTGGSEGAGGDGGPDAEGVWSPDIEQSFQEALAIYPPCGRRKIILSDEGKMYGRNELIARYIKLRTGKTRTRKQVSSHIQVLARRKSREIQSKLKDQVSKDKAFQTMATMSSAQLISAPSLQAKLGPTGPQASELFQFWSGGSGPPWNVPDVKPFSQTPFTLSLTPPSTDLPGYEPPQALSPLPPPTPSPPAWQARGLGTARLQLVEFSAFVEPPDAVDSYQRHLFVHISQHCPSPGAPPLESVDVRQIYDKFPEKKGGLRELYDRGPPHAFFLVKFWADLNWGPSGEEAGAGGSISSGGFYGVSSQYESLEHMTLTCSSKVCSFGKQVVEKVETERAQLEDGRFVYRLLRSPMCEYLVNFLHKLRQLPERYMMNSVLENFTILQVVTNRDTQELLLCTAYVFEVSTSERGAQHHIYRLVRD

[4] = molecular target: T1, Transcriptional enhancer factor TEF-3; assay: Binding affinity to human TEAD4 (217 to 434 residues) expressed in Escherichia coli BL21 Star (DE3) assessed as change in melting temperature incubated for 2 hr by measuring tryptophane fluorescence by Nano Differential scanning fluorometry
[5] = molecular target: T3, Transcriptional enhancer factor TEF-4; assay: Binding affinity to human TEAD2 (217 to 447 residues) expressed in Escherichia coli BL21 Star (DE3) assessed as change in melting temperature incubated for 2 hrs by measuring tryptophane fluorescence by Nano Differential scanning fluorometry
[6] = molecular target: T2, Transcriptional enhancer factor TEF-1; assay: Inhibition of pSF-CMV-P-FLAG tagged human TEAD1 palmitoylation transfected in HEK293 cells at 10 uM incubated for 6 hrs by Western blot analysis relative to control; type: cell-based
[7] = molecular target: T4, Transcriptional enhancer factor TEF-5 (Homo sapiens, UniProt Q99594); assay: Inhibition of pSF-CMV-P-FLAG tagged human TEAD3 palmitoylation transfected in HEK293 cells at 10 uM incubated for 6 hrs by Western blot analysis relative to control; type: cell-based
T4 sequence (Q99594 whole entry): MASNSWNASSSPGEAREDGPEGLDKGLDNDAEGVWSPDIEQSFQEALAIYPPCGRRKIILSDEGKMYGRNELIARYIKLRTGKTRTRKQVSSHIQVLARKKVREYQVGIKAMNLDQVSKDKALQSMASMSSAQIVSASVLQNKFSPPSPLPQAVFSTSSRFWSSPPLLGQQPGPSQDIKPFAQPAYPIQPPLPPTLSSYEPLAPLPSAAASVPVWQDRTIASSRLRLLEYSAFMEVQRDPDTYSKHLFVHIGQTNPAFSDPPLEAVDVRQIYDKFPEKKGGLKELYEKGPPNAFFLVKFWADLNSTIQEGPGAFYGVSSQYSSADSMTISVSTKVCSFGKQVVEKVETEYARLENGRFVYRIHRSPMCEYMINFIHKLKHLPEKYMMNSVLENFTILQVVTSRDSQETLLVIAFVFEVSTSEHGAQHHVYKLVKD

[8] = Inhibition of YAP/TAZ-TEAD interaction in human SK-HEP1 cells incubated for 24 hrs by luciferase reporter gene assay; type: cell-based
[9] = molecular target: T4, Transcriptional enhancer factor TEF-5; assay: Binding affinity to human TEAD3 (216 to 435 residues) expressed in Escherichia coli BL21 Star (DE3) assessed as change in melting temperature incubated for 2 hrs by measuring tryptophane fluorescence by Nano Differential scanning fluorometry
[10] = system: NCI-H226; assay: Cytotoxicity against human NCI-H226 cells assessed as cell viability at 10 uM measured for 7 days by celltiter-glo assay; type: functional, cell-based; conditions: NCI-H226, 168 h
[11] = molecular target: T4, Transcriptional enhancer factor TEF-5; assay: Binding affinity to human TEAD3 (216 to 435 residues) expressed in Escherichia coli BL21 Star (DE3) assessed as change in melting temperature incubated for 2 hrs by measuring scattering fluorescence by Nano Differential scanning fluorometry
[12] = molecular target: T3, Transcriptional enhancer factor TEF-4; assay: Binding affinity to human TEAD2 (217 to 447 residues) expressed in Escherichia coli BL21 Star (DE3) assessed as change in melting temperature incubated for 2 hrs measuring scattering fluorescence by Nano Differential scanning fluorometry
[13] = molecular target: T2, Transcriptional enhancer factor TEF-1; assay: Binding affinity to human TEAD1 (209 to 426 residues) expressed in Escherichia coli BL21 Star (DE3) assessed as change in melting temperature incubated for 2 hrs by measuring scattering fluorescence by Nano Differential scanning fluorometry
[14] = Microsomal stability in human hepatocyte measured per 10^6 cells; type: ADME, cell-based; conditions: hepatocytes
[15] = Microsomal stability in human microsomes measured per 10^6 cells; type: ADME, Microsome
[16] = Microsomal stability in mouse microsomes measured per 10^6 cells; type: ADME, Microsome
[17] = Solubility of the compound in SGF buffer at pH 1.2; type: physicochemical
[18] = Solubility of the compound in PBS buffer at pH 7.4; type: physicochemical
[19] = molecular target: T1, Transcriptional enhancer factor TEF-3; assay: Binding affinity to human TEAD4 (217 to 434 residues) expressed in Escherichia coli BL21 Star (DE3) by surface plasmon resonance assay
[20] = molecular target: T3, Transcriptional enhancer factor TEF-4; assay: Binding affinity to human TEAD2 (217 to 447 residues) expressed in Escherichia coli BL21 Star (DE3) by surface plasmon resonance assay
[21] = molecular target: T2, Transcriptional enhancer factor TEF-1; assay: Binding affinity to human TEAD1 (209 to 426 residues) expressed in Escherichia coli BL21 Star (DE3) by surface plasmon resonance assay
[22] = Microsomal stability in mouse hepatocyte measured per 10^6 cells; type: ADME, cell-based; conditions: hepatocytes

Compound: Cn1cc2c3nc(C(=O)O)ccc3n(-c3ccc(C(F)(F)F)cc3)c2n1
IC50 [8]: 16 nM

Compound: O=C(O)c1ccc2c(c1)c1c[nH]nc1n2-c1ccc(C(F)(F)F)cc1
IC50 [8]: 138 nM

Compound: Cc1nccnc1-c1nn2c(=O)cc(-c3ccc(C4CCCCC4)cc3)[nH]c2c1C(=O)N1CC(CF)C1
ΔTm [11]: 6.9 °C
inhibition [1]: 88%
ΔTm [12]: 9.5 °C
inhibition [3]: 86%
ΔTm [4]: 14.9 °C
inhibition [6]: 84%
inhibition [7]: 91%
IC50 [8]: 36 nM
ΔTm [13]: 7.6 °C
IC50 [10]: 82 nM

Compound: Cn1cc2c3cc(C(=O)O)ccc3n(-c3ccc(F)cc3)c2n1
IC50 [8]: 163 nM

Compound: Cn1cc2c3cc(C(=O)O)ccc3n(-c3ccc(OC(F)(F)F)cc3F)c2n1
IC50 [8]: 27 nM

Compound: O=C(O)c1ccc2c(cnn2C2CCC(F)(F)CC2)c1
IC50 [8]: 14 nM

Compound: Cn1ncc2c1c1cc(C(=O)O)ccc1n2-c1ccc(C(F)(F)F)cc1
IC50 [8]: 48 nM

Compound: Cn1cc2c3cc(C(=O)O)ccc3n(CC3CCC(C(F)(F)F)CC3)c2n1 (stereo not given)
IC50 [8]: 30 nM

Compound: N#CCn1cc2c3cc(C(=O)O)ccc3n(-c3ccc(C(F)(F)F)cc3)c2n1
IC50 [8]: 27 nM

Compound: Cn1ncc2c3cc(C(=O)O)ccc3n(-c3ccc(C(F)(F)F)cc3)c21
IC50 [8]: 16.6 nM

Compound: Cn1cc2c3cc(C(=O)O)ccc3n(C34CC(C(F)(F)F)(C3)C4)c2n1
Stability [16]: < 10 µL/min
IC50 [8]: 33 nM
Stability [15]: < 10 µL/min

Compound: O=c1[nH]c(-c2nccnc2Nc2ccc(C(F)(F)F)cc2)no1
inhibition [1]: 91%
ΔTm [2]: 11.2 °C
inhibition [3]: 86%
ΔTm [4]: 9.8 °C
ΔTm [5]: 12.3 °C
inhibition [6]: 97%
inhibition [7]: 83%
IC50 [8]: 15 nM
ΔTm [9]: 8.2 °C
IC50 [10]: 110 nM

Compound: Cn1cc2c3cc(C(=O)O)ccc3n(CC3CC(C(F)(F)F)C3)c2n1 (stereo not given)
Stability [16]: < 10 µL/min
IC50 [8]: 52 nM
solubility [17]: < 1 µg/mL
Stability [15]: < 10 µL/min
solubility [18]: > 40 µg/mL

Compound: Cn1cc2c3cc(C(=O)O)ccc3n(C)c2n1
Stability [16]: < 10 µL/min
IC50 [8]: > 30000 nM
Stability [15]: < 10 µL/min

Compound: COC1CCC(Cn2c3ccc(C(=O)O)cc3c3cn(C)nc32)CC1 (stereo not given)
IC50 [8]: 250 nM

Compound: Cn1cc2c3cc(C(=O)O)ccc3n(CCC(C)(C)C(F)(F)F)c2n1
Stability [16]: < 10 µL/min
IC50 [8]: 83 nM
solubility [17]: < 1 µg/mL
Stability [15]: < 10 µL/min
solubility [18]: > 40 µg/mL

Compound: C[C@H](NC(=O)c1ccc2c(-c3ccc(C(F)(F)F)cc3)cccc2c1)c1ccccn1
inhibition [1]: 93%
ΔTm [2]: 10.8 °C
inhibition [3]: 87%
ΔTm [4]: -2.25 °C
ΔTm [5]: 9.8 °C
inhibition [6]: 93%
inhibition [7]: 93%
IC50 [8]: 25 nM
ΔTm [9]: 10.1 °C
IC50 [10]: 42 nM

Compound: C[C@@H](NC(=O)c1ccc2c(-c3ccc(C(F)(F)F)cc3)cccc2c1)c1cccc(N)n1
inhibition [1]: 66%
ΔTm [2]: 5.5 °C
inhibition [3]: 51%
ΔTm [4]: 1.3 °C
ΔTm [5]: 3.8 °C
inhibition [6]: 83%
inhibition [7]: 91%
IC50 [8]: 900 nM
ΔTm [9]: 5.9 °C
IC50 [10]: 661 nM

Compound: Cn1cc2c3cc(C(=O)O)ccc3n(CC3CCCCC3)c2n1
IC50 [8]: 96 nM
solubility [17]: < 1 µg/mL
solubility [18]: > 40 µg/mL

Compound: CNS(=O)(=O)c1ccc(NCc2ccccc2)c(-c2cn(C)cn2)c1
inhibition [1]: 19%
ΔTm [2]: 3.4 °C
inhibition [3]: 33%
ΔTm [4]: -0.1 °C
ΔTm [5]: -0.7 °C
inhibition [6]: 96%
inhibition [7]: 10%
IC50 [8]: 29 nM
ΔTm [9]: 0.4 °C
IC50 [10]: 140 nM

Compound: Cn1cc2c3cc(C(=O)O)ncc3n(-c3ccc(C(F)(F)F)cc3)c2n1
IC50 [8]: 39 nM

Compound: Cn1cc2c3cc(C(=O)O)ccc3n(C3CC4(C3)CC(F)(F)C4)c2n1
Stability [16]: < 10 µL/min
IC50 [8]: 33 nM
Stability [15]: < 10 µL/min

Compound: O=C(O)c1cnc2c(cnn2C2CCC(F)(F)CC2)c1
IC50 [8]: 28 nM

Compound: O=C(O)c1ccc2c(cnn2C2CCCC2)c1
IC50 [8]: > 30 nM

Compound: Cn1cc2c3cc(C(=O)O)ccc3n(-c3cccc(C(F)(F)F)c3)c2n1
IC50 [8]: 46 nM

Compound: Cn1cc2c(n1)[nH]c1ccc(C(=O)O)cc12
IC50 [8]: > 30000 nM

Compound: Cn1cc2c(n1)c1cc(C(=O)O)ccc1n2C1CCCC1
IC50 [8]: 17 nM

Compound: O=C(O)c1cnc2c(cnn2C2CCCC2)c1
IC50 [8]: 16 nM

Compound: C[C@H](NC(=O)c1ccc2c(-c3ccc(C(F)(F)F)cc3)cccc2c1)c1cccc(N)n1
inhibition [1]: 93%
ΔTm [2]: 14.5 °C
inhibition [3]: 87%
ΔTm [4]: 1.3 °C
ΔTm [5]: 13.4 °C
inhibition [6]: 92%
inhibition [7]: 91%
IC50 [8]: 30 nM
ΔTm [9]: 13.4 °C
IC50 [10]: 20 nM

Compound: Cn1cc2c3cc(C(=O)O)ccc3n(C3CCC(C(F)(F)F)CC3)c2n1 (stereo not given)
IC50 [8]: 42 nM
solubility [17]: < 1 µg/mL
solubility [18]: > 40 µg/mL

The next lines start with results.

inhibition [1]: 70%
ΔTm [2]: 10.2 °C
inhibition [3]: 69%
ΔTm [4]: 3.5 °C
ΔTm [5]: 7.2 °C
inhibition [6]: 97%
inhibition [7]: 29%
IC50 [8]: 1 nM
ΔTm [9]: 2 °C
Compound: CNS(=O)(=O)c1ccc(Nc2ccc(C(F)(F)F)cc2)c(-c2cn(C)cn2)c1
IC50 [10]: 3 nM

IC50 [8]: 0.16 nM
Compound: Cn1cc2c3cc(C(=O)O)ccc3n(C3CCCCC3)c2n1

IC50 [8]: 3 nM
Compound: CCn1cc2c3cc(C(=O)O)ccc3n(-c3ccc(C(F)(F)F)cc3)c2n1

IC50 [8]: 9 nM
Compound: Cn1cc2c(n1)c1cc(C(=O)O)ccc1n2-c1ccc(C(F)(F)F)cc1

IC50 [8]: 5.2 nM
Compound: O=C(O)c1cnc2c(cnn2C2CCCCC2)c1

IC50 [8]: 14 nM
Compound: Cn1cc2c3cc(C(=O)O)ccc3n(-c3ccc(C(F)(F)F)nc3)c2n1

Stability [14]: 19 µL/min
IC50 [8]: 3 nM
Stability [15]: 12 µL/min
Compound: Cn1cc2c3cc(C(=O)O)ccc3n(-c3ccc(OC(F)(F)F)cc3)c2n1

IC50 [8]: 11 nM
Compound: Cn1cc2c3cc(C(=O)O)ccc3n(-c3cccc(OC(F)(F)F)c3)c2n1

IC50 [8]: 0.73 nM
Compound: Cn1cc2c(n1)c1cc(C(=O)O)ccc1n2C1CCCCC1

IC50 [8]: 4 nM
Compound: Cn1cc2c3cc(C(=O)O)ccc3n(-c3ccc(C(F)(F)F)c(F)c3)c2n1

IC50 [8]: 5 nM
Compound: Cn1cc2c3cc(C(=O)O)ccc3n(-c3ccc(C(F)(F)F)cn3)c2n1

Kd [19]: 7600 nM
Kd [20]: 43000 nM
IC50 [8]: 1.1 nM
Kd [21]: 5800 nM
Compound: CCCc1nn(C2CCC(F)(F)CC2)c2ccc(C(=O)O)cc12

Stability [14]: > 20 µL/min
Stability [22]: > 20 µL/min
IC50 [8]: 4 nM
Compound: C#CCn1cc2c3cc(C(=O)O)ccc3n(-c3ccc(C(F)(F)F)cc3)c2n1

IC50 [8]: 7 nM
Compound: CCCn1cc2c3cc(C(=O)O)ccc3n(-c3ccc(C(F)(F)F)cc3)c2n1

IC50 [8]: 6 nM
Compound: Cn1cc2c3cc(C(=O)O)cnc3n(-c3ccc(C(F)(F)F)cc3)c2n1

Stability [14]: < 4 µL/min
IC50 [8]: 7 nM
Compound: O=C(O)c1ccc2c(c1)c1cn(C(F)(F)F)nc1n2-c1ccc(C(F)(F)F)cc1
